Data on 18 compounds can be found in US20220023172A1, “COSMETIC COMPOSITIONS AND METHODS OF USE” (STC.UNM, priority 2018, published 2022).

The term melting point denotes the temperature of the solid-liquid transition. Turning to `COc1ccccc1/C=C/c1ccccc1F`, the melting point lay within 34 to 35 °C.
Take `COc1cccc(/C=C/c2ccc(F)cc2)c1OC`: the melting point lay within 50 to 51 °C.
With `COc1ccc(OC)c(/C=C/c2ccc(F)cc2)c1`, the melting point was 58 to 59 °C.
With `Cc1ccc(/C=C/c2ccc(F)c(F)c2)cc1`, the melting point is 90 to 92 °C.
To `COc1ccc(/C=C/c2cc(F)ccc2F)cc1` belongs 109 to 110 °C; to `Fc1ccc(/C=C/c2ccccc2F)cc1F`, 85 to 86 °C.
Turning to `COc1ccc(/C=C/c2ccc(F)c(F)c2)cc1`, the melting point lay in the range of 73 to 74 °C.
`Fc1ccc(F)c(/C=C/c2ccccc2F)c1` returned a melting point of 79 to 81 °C.
`Fc1cccc(/C=C/c2ccc(F)c(F)c2)c1`: the melting point lay in the range of 48 to 49 °C.
`Fc1cccc(/C=C/c2cc(F)ccc2F)c1` came in with a melting point of 73 to 74 °C.
With `Fc1cccc(/C=C/c2ccc(F)cc2F)c1`, the melting point lay in the range of 60 to 61 °C.
For the compound `Fc1ccc(/C=C/c2ccccc2F)c(F)c1`, the melting point is 84 to 85 °C.
To `Cc1ccc(/C=C/c2ccc(F)cc2F)cc1` belongs 72 to 73 °C; to `Fc1ccc(/C=C/c2cc(F)ccc2F)cc1`, 76 to 77 °C; to `COc1cccc(/C=C/c2ccc(C)cc2)c1OC`, 38 to 40 °C.
Compound `COc1cccc(/C=C/c2ccccc2OC)c1` showed a melting point of 49 to 50 °C.
With `COc1cccc(/C=C/c2cc(OC)ccc2OC)c1`, the melting point lay within 48 to 49 °C.
`COc1cccc(/C=C/c2ccc(C(F)(F)F)cc2)c1OC` had a melting point of 67 to 69 °C.
